Test results as given in patent US20240415828A1, “TLR7 AGONIST AND COMBINATIONS FOR CANCER TREATMENT” (BIONTECH SE, priority 2021, published 2024).

Legend:
[1] = in vivo, cited from earlier work
[2] = test system: CT26 colon carcinoma cells; test: CT26 tumor model, BNT411 alone and with oxaliplatin (Example 4); assay type: in vivo, mouse; details: BNT411 3 mg/kg i.v. eight times; oxaliplatin 5 mg/kg i.p. four times; group mean tumor volumes test vs control
Description: FIG. 5. Anti-tumoral efficacy of BNT411 alone and in combination with oxaliplatin in a tumor mouse model. Mice (n=12 or 13 per group) subcutaneously inoculated with 2.5×10^5 CT26 colon carcinoma cells were used as tumor mouse model. Oxaliplatin was administered intraperitoneally (i.p.) (5 mg/kg, four times with 4 to 5 days between injections). BNT411 was administered i.v. at a dose level of 3 mg/kg eight times with 2 to 5 days interval between injections and at least 2 days after oxaliplatin therapy. Anti-tumor efficacy was evaluated by group mean tumor volumes in test versus control groups (vehicle only) on days 33 and 42 (at least 50% of test and control animals alive). IFNα levels in plasma were analyzed 1 h after first BNT411 administration and gp70+ T-cell populations in blood were analyzed on days 34 and 41. (A) Dosing schedule. (B) Graph showing the tumor volumes vs. days after inoculation. Group mean tumor volumes (±SEM (standard error of the mean)) for all live animals are shown. Treatment groups included nine to ten mice. Additionally, tumor volumes of animals that were euthanized due to tumor load were carried forward for as long as they were larger than the group median tumor volume (last observation carried forward (LOCF) values). Curves were discontinued for groups with less than 50% animals alive. (C) Graph showing IFNα serum level 60 min after first injection for the 4 groups (control (vehicle); BNT411 alone; oxaliplatin alone; BNT411 and oxaliplatin). IFNα levels in control and test groups are shown by vertical bars (±SEM), Statistical significance between groups is indicated by horizontal lines. P-value summary: ****=p≤0.0001; ***=p≤0.001; **=p≤0.01, […].
Serum levels of IFNα were measured by sandwich ELISA (Pbl Assay Systems) according to manufacturer's instructions.
BALB/c mice were inoculated s.c. with 2.5×10^5−5×10^5 CT26-WT into the flank, respectively. Once tumors reached palpable sizes, mice were randomly divided into treatment and control groups. Tumor volume was measured unblinded with a caliper and calculated using the formula (a×b^2)/2 (a being the largest and b being the smallest diameter of the tumor). Tumor growth was documented as mean tumor size with standard error disregarding single distant outliers. Treatment was initiated after 7-10 d with tumors having reached an average volume of about 10 mm^3. […]
Oxaliplatin was administered intraperitoneally (i.p.) (5 mg/kg, four times with 4 to 5 days between injections). […] Anti-tumor efficacy was evaluated by group mean tumor volumes in test versus control groups (vehicle only) on study days 33 and 42, (at least 50% of test and control animals alive). IFNα levels in plasma were analyzed 1 h after first BNT411 administration and gp70+ T-cell populations in blood on study days 34 and 41.

CCc1nc2c(N)nc3ccccc3c2n1CCCCNS(C)(=O)=O [852A]
tolerability of repeat-dose regimens [1]: not well tolerated

CC(C)Cn1cnc2c(N)nc3ccccc3c21 [imiquimod]
tolerability of repeated i.v. administrations at a systemically effective IFNa-inducing dose level ([1]; iv): dose limiting adverse reactions

O=C1[O][Pt]2([NH][C@@H]3CCCC[C@H]3[NH]2)[O]C1=O [oxaliplatin, reference compound]
anti-tumor efficacy, T/C value [2]: 50.7%
